In patent publication US12371454B2, “Cyclic peptide compound having Kras inhibitory action” (priority 2019, dated 2025):
Starred links: 1 amine or outer side, 2 acyl side, 3 side chain; linkers in the order of their positions; H or OH if unused. Positions of bridges follow the written chain, without caps; N, C: chain ends. Non-standard residues stand in square brackets, D forms with d. Residues, ends and D or L forms follow the SMILES beside them. *: point of attachment. hPhe(3-Cl-4-CF3) = N[C@@H](CCc1ccc(C(F)(F)F)c(Cl)c1)C(=O)O; hPhe(3-F,4-CF3) = N[C@@H](CCc1ccc(C(F)(F)F)c(F)c1)C(=O)O; NMePhe(4-CF3) = CN[C@@H](Cc1ccc(C(F)(F)F)cc1)C(=O)O; 3Oxa8azabicyclo(3.2.1)octane = C1CC2COCC1N2*; NMePhe(4-Me) = CN[C@@H](Cc1ccc(C)cc1)C(=O)O; X11 = CN([C@@H](CCc1cccnc1)C(=O)[*:2])[*:1]; X3 = CN([C@@H](CCc1ccncc1)C(=O)[*:2])[*:1]; NMeAla(cPent) = CN[C@@H](CC1CCCC1)C(=O)O; NMeGly(cPent) = CN[C@H](C(=O)O)C1CCCC1; NMeCha = CN[C@@H](CC1CCCCC1)C(=O)O; NMeChg = CN[C@H](C(=O)O)C1CCCCC1; Gly(cBu) = N[C@H](C(=O)O)C1CCC1; NMeD = CN[C@@H](CC(=O)O)C(=O)O; NMeL = CN[C@@H](CC(C)C)C(=O)O; NMeNva = CCC[C@H](NC)C(=O)O; NMeAbu = CC[C@H](NC)C(=O)O; NMeS = CN[C@@H](CO)C(=O)O; Morpholide = C1CN(*)CCO1; NMeA = CN[C@@H](C)C(=O)O; Pyrrolidide = C1CCN(*)C1; Ac5c = NC1(C(=O)O)CCCC1; Aze = O=C(O)[C@@H]1CCN1; Sar = CNCC(=O)O; Propyl = CCC*

What was measured:
[1] = test system: Human pancreatic cancer cell line AsPC-1; experiment: Measurement of AsPC-1 cell growth inhibition (AsPC-1 CGI); assay type: cell-based; conditions: 96 h
Summary of the method: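 AsPC-1 cells in 15% FBS RPMI-1640 were exposed to test compound for 96 hours at 37° C, with CellTiter-Glo as endpoint.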

[2] = target: T1, Kras and SOS1 (biotin-tagged human Kras loaded with GDP, His-tagged human SOS1) (Homo sapiens, UniProt P01116, G12D); experiment: Protein-protein interaction inhibition between Kras and SOS1 (KrasGl2D-SOS PPI) using AlphaScreen; assay type: binding; conditions: AlphaScreen; biotin-tagged human Kras loaded with GDP, His-tagged human SOS1; read-out: KRAS G12D-SOS PPI IC50
T1 construct: made in house; host or cells: E. coli (stated for Kras only)
T1 sequence (P01116 1-188 isoform P01116-2 G12D): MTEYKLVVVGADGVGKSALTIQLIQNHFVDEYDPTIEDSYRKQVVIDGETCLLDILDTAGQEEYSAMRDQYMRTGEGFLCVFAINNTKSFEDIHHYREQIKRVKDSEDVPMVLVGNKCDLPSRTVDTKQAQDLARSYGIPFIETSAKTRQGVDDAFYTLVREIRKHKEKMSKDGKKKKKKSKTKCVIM
Summary of the method: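 Kras was produced in E. coli, purified, then loaded with GDP. It was paired via streptavidin acceptor beads with His-SOS1 held on nickel donor beads, and proximity signal at 520-620 nm was read after 680 nm illumination.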

CC[C@H](C)[C@@H]1NC(=O)[C@H](CC(C)C)N(C)C(=O)C[C@@H](C(=O)N2C3CCC2COC3)N(C)C(=O)[C@H](C2CCCCC2)N(C)C(=O)C2(CCCC2)NC(=O)[C@@H]2CCCN2C(=O)[C@H](CCc2ccc(C(F)(F)F)c(Cl)c2)NC(=O)CN(C)C(=O)[C@H](Cc2ccc(C)cc2)N(C)C(=O)CN(C)C(=O)CN(C)C1=O [Compound 1869] ([NMeL]I[Sar][Sar][NMePhe(4-Me)][Sar][hPhe(3-Cl-4-CF3)]P[Ac5c][NMeChg][NMeD]-{3Oxa8azabicyclo(3.2.1)octane}; lactam N-11)
IC50 [1]: 0.05 to 0.1 µM
IC50 [2]: 0.00076 µM

CC[C@H](C)[C@@H]1NC(=O)[C@H](CC(C)C)N(C)C(=O)C[C@@H](C(=O)N2CCCC2)N(C)C(=O)[C@H](C2CCCCC2)N(C)C(=O)C2(CCCC2)NC(=O)[C@@H]2CCCN2C(=O)[C@H](CCc2ccc(C(F)(F)F)c(F)c2)NC(=O)CN(C)C(=O)[C@H](CC2CCCCC2)N(C)C(=O)CN(C)C(=O)CN(C)C1=O [Compound 1870] ([NMeL]I[Sar][Sar][NMeCha][Sar][hPhe(3-F,4-CF3)]P[Ac5c][NMeChg][NMeD]-Pyrrolidide; lactam N-11)
IC50 [1]: 0.02 to 0.05 µM
IC50 [2]: 0.00074 µM

CCC[C@H]1C(=O)N[C@@H]([C@@H](C)CC)C(=O)N(C)CC(=O)N(C)CC(=O)N(C)[C@@H](Cc2ccc(C)cc2)C(=O)N(C)CC(=O)N[C@@H](CCc2ccc(C(F)(F)F)c(Cl)c2)C(=O)N2CCC[C@H]2C(=O)NC2(CCCC2)C(=O)N(C)[C@@H](C2CCCCC2)C(=O)N(C)[C@H](C(=O)N2CCOCC2)CC(=O)N1C [Compound 1871] ([NMeNva]I[Sar][Sar][NMePhe(4-Me)][Sar][hPhe(3-Cl-4-CF3)]P[Ac5c][NMeChg][NMeD]-Morpholide; lactam N-11)
IC50 [1]: 0.02 to 0.05 µM
IC50 [2]: 0.00048 µM

CC[C@H](C)[C@@H]1NC(=O)[C@H](CC(C)C)N(C)C(=O)C[C@@H](C(=O)N2CCOCC2)N(C)C(=O)[C@H](C2CCCCC2)N(C)C(=O)C2(CCCC2)NC(=O)[C@@H]2CCCN2C(=O)[C@H](CCc2ccc(C(F)(F)F)c(Cl)c2)NC(=O)CN(C)C(=O)[C@H](Cc2ccc(C)cc2)N(C)C(=O)CN(C)C(=O)CN(C)C1=O [Compound 1872] ([NMeL]I[Sar][Sar][NMePhe(4-Me)][Sar][hPhe(3-Cl-4-CF3)]P[Ac5c][NMeChg][NMeD]-Morpholide; lactam N-11)
IC50 [1]: 0.02 to 0.05 µM
IC50 [2]: 0.00065 µM

CC[C@H](C)[C@@H]1NC(=O)[C@H](CC)N(C)C(=O)C[C@@H](C(=O)N2C3CCC2COC3)N(C)C(=O)[C@H](C2CCCCC2)N(C)C(=O)C2(CCCC2)NC(=O)[C@@H]2CCCN2C(=O)[C@H](CCc2ccc(C(F)(F)F)c(Cl)c2)NC(=O)CN(C)C(=O)[C@H](CC2CCCC2)N(C)C(=O)CN(C)C(=O)CN(C)C1=O [Compound 1877] ([NMeAbu]I[Sar][Sar][NMeAla(cPent)][Sar][hPhe(3-Cl-4-CF3)]P[Ac5c][NMeChg][NMeD]-{3Oxa8azabicyclo(3.2.1)octane}; lactam N-11)
IC50 [1]: 0.1 to 0.5 µM
IC50 [2]: 0.00086 µM

CC(C)C[C@H]1C(=O)N[C@@H](C2CCC2)C(=O)N(C)CC(=O)N(C)CC(=O)N(C)[C@@H](CC2CCCCC2)C(=O)N(C)CC(=O)N[C@@H](CCc2ccc(C(F)(F)F)c(Cl)c2)C(=O)N2CCC[C@H]2C(=O)NC2(CCCC2)C(=O)N(C)[C@@H](C2CCCCC2)C(=O)N(C)[C@H](C(=O)N2C3CCC2COC3)CC(=O)N1C [Compound 1879] ([NMeL][Gly(cBu)][Sar][Sar][NMeCha][Sar][hPhe(3-Cl-4-CF3)]P[Ac5c][NMeChg][NMeD]-{3Oxa8azabicyclo(3.2.1)octane}; lactam N-11)
IC50 [1]: 0.05 to 0.1 µM
IC50 [2]: 0.00066 µM

CC[C@H](C)[C@@H]1NC(=O)[C@H](CC(C)C)N(C)C(=O)C[C@@H](C(=O)N(C)C)N(C)C(=O)[C@H](C2CCCC2)N(C)C(=O)C2(CCCC2)NC(=O)[C@H](CCc2ccncc2)N(C)C(=O)[C@H](CCc2ccc(C(F)(F)F)c(Cl)c2)NC(=O)CN(C)C(=O)[C@H](CC2CCCCC2)N(C)C(=O)[C@@H]2CCN2C(=O)[C@H](C)N(C)C1=O [Compound 1881] ([NMeL]I[NMeA][Aze][NMeCha][Sar][hPhe(3-Cl-4-CF3)][X3][Ac5c][NMeGly(cPent)][NMeD]-NMe2; lactam N-11)
IC50 [1]: 0.05 to 0.1 µM
IC50 [2]: 0.0014 µM

CC[C@H](C)[C@@H]1NC(=O)[C@H](CC)N(C)C(=O)C[C@@H](C(=O)N2CCOCC2)N(C)C(=O)[C@H](C2CCCCC2)N(C)C(=O)C2(CCCC2)NC(=O)[C@@H]2CCCN2C(=O)[C@H](CCc2ccc(C(F)(F)F)c(Cl)c2)NC(=O)CN(C)C(=O)[C@H](Cc2ccc(C(F)(F)F)cc2)N(C)C(=O)CN(C)C(=O)CN(C)C1=O [Compound 1884] ([NMeAbu]I[Sar][Sar][NMePhe(4-CF3)][Sar][hPhe(3-Cl-4-CF3)]P[Ac5c][NMeChg][NMeD]-Morpholide; lactam N-11)
IC50 [1]: 0.02 to 0.05 µM
IC50 [2]: 0.00041 µM

CC[C@H](C)[C@@H]1NC(=O)[C@H](CC)N(C)C(=O)C[C@@H](C(=O)N2CCCC2)N(C)C(=O)[C@H](C2CCCCC2)N(C)C(=O)C2(CCCC2)NC(=O)[C@@H]2CCCN2C(=O)[C@H](CCc2ccc(C(F)(F)F)c(Cl)c2)NC(=O)CN(C)C(=O)[C@H](Cc2ccc(C(F)(F)F)cc2)N(C)C(=O)CN(C)C(=O)CN(C)C1=O [Compound 1890] ([NMeAbu]I[Sar][Sar][NMePhe(4-CF3)][Sar][hPhe(3-Cl-4-CF3)]P[Ac5c][NMeChg][NMeD]-Pyrrolidide; lactam N-11)
IC50 [1]: 0.02 to 0.05 µM
IC50 [2]: 0.00055 µM

CC[C@H](C)[C@@H]1NC(=O)[C@H](CC(C)C)N(C)C(=O)C[C@@H](C(=O)N(C)C)N(C)C(=O)[C@H](C2CCCC2)N(C)C(=O)C2(CCCC2)NC(=O)[C@H](CCc2cccnc2)N(C)C(=O)[C@H](CCc2ccc(C(F)(F)F)c(Cl)c2)NC(=O)CN(C)C(=O)[C@H](CC2CCCCC2)N(C)C(=O)[C@@H]2CCN2C(=O)[C@H](C)N(C)C1=O [Compound 1892] ([NMeL]I[NMeA][Aze][NMeCha][Sar][hPhe(3-Cl-4-CF3)][X11][Ac5c][NMeGly(cPent)][NMeD]-NMe2; lactam N-11)
IC50 [1]: 0.05 to 0.1 µM
IC50 [2]: 0.0015 µM

CCCOC[C@H]1C(=O)N(C)CC(=O)N[C@@H](CCc2ccc(C(F)(F)F)c(Cl)c2)C(=O)N2CCC[C@H]2C(=O)NC2(CCCC2)C(=O)N(C)[C@@H](C2CCCCC2)C(=O)N(C)[C@H](C(=O)N2CCOCC2)CC(=O)N(C)[C@@H](CC)C(=O)N[C@@H]([C@@H](C)CC)C(=O)N(C)CC(=O)N(C)CC(=O)N1C [Compound 1896] ([NMeAbu]I[Sar][Sar][NMeS](Propyl)[Sar][hPhe(3-Cl-4-CF3)]P[Ac5c][NMeChg][NMeD]-Morpholide; lactam N-11)
IC50 [1]: 0.1 to 0.5 µM
IC50 [2]: 0.00049 µM

CCCOC[C@H]1C(=O)N(C)CC(=O)N[C@@H](CCc2ccc(C(F)(F)F)c(Cl)c2)C(=O)N2CCC[C@H]2C(=O)NC2(CCCC2)C(=O)N(C)[C@@H](C2CCCCC2)C(=O)N(C)[C@H](C(=O)N2C3CCC2COC3)CC(=O)N(C)[C@@H](CC(C)C)C(=O)N[C@@H]([C@@H](C)CC)C(=O)N(C)CC(=O)N(C)CC(=O)N1C [Compound 1900] ([NMeL]I[Sar][Sar][NMeS](Propyl)[Sar][hPhe(3-Cl-4-CF3)]P[Ac5c][NMeChg][NMeD]-{3Oxa8azabicyclo(3.2.1)octane}; lactam N-11)
IC50 [1]: 0.1 to 0.5 µM
IC50 [2]: 0.00099 µM

CC[C@H](C)[C@@H]1NC(=O)[C@H](CC)N(C)C(=O)C[C@@H](C(=O)N2C3CCC2COC3)N(C)C(=O)[C@H](C2CCCCC2)N(C)C(=O)C2(CCCC2)NC(=O)[C@@H]2CCCN2C(=O)[C@H](CCc2ccc(C(F)(F)F)c(Cl)c2)NC(=O)CN(C)C(=O)[C@H](CC2CCCCC2)N(C)C(=O)CN(C)C(=O)CN(C)C1=O [Compound 1901] ([NMeAbu]I[Sar][Sar][NMeCha][Sar][hPhe(3-Cl-4-CF3)]P[Ac5c][NMeChg][NMeD]-{3Oxa8azabicyclo(3.2.1)octane}; lactam N-11)
IC50 [1]: 0.05 to 0.1 µM
IC50 [2]: 0.00056 µM

CC[C@H](C)[C@@H]1NC(=O)[C@H](CC)N(C)C(=O)C[C@@H](C(=O)N2CCOCC2)N(C)C(=O)[C@H](C2CCCCC2)N(C)C(=O)C2(CCCC2)NC(=O)[C@@H]2CCCN2C(=O)[C@H](CCc2ccc(C(F)(F)F)c(Cl)c2)NC(=O)CN(C)C(=O)[C@H](Cc2ccc(C)cc2)N(C)C(=O)CN(C)C(=O)CN(C)C1=O [Compound 1904] ([NMeAbu]I[Sar][Sar][NMePhe(4-Me)][Sar][hPhe(3-Cl-4-CF3)]P[Ac5c][NMeChg][NMeD]-Morpholide; lactam N-11)
IC50 [1]: 0.02 to 0.05 µM
IC50 [2]: 0.00057 µM

CC[C@H](C)[C@@H]1NC(=O)[C@H](CC)N(C)C(=O)C[C@@H](C(=O)N2CCCC2)N(C)C(=O)[C@H](C2CCCCC2)N(C)C(=O)C2(CCCC2)NC(=O)[C@@H]2CCCN2C(=O)[C@H](CCc2ccc(C(F)(F)F)c(Cl)c2)NC(=O)CN(C)C(=O)[C@H](Cc2ccc(C)cc2)N(C)C(=O)CN(C)C(=O)CN(C)C1=O [Compound 1905] ([NMeAbu]I[Sar][Sar][NMePhe(4-Me)][Sar][hPhe(3-Cl-4-CF3)]P[Ac5c][NMeChg][NMeD]-Pyrrolidide; lactam N-11)
IC50 [1]: 0.02 to 0.05 µM
IC50 [2]: 0.00033 µM

CC(C)C[C@H]1C(=O)N[C@@H](C2CCC2)C(=O)N(C)CC(=O)N(C)CC(=O)N(C)[C@@H](CC2CCCCC2)C(=O)N(C)CC(=O)N[C@@H](CCc2ccc(C(F)(F)F)c(Cl)c2)C(=O)N2CCC[C@H]2C(=O)NC2(CCCC2)C(=O)N(C)[C@@H](C2CCCCC2)C(=O)N(C)[C@H](C(=O)N2CCOCC2)CC(=O)N1C [Compound 1906] ([NMeL][Gly(cBu)][Sar][Sar][NMeCha][Sar][hPhe(3-Cl-4-CF3)]P[Ac5c][NMeChg][NMeD]-Morpholide; lactam N-11)
IC50 [1]: 0.05 to 0.1 µM
IC50 [2]: 0.00055 µM
